Source: article PMC8618441, “From Natural Xanthones to Synthetic C-1 Aminated 3,4-Dioxygenated Xanthones as Optimized Antifouling Agents” (Marine Drugs, 2021)
In brackets after ≈: the same amount, converted by molar mass. Like-named read-outs stand apart in the source and are kept apart here.

What was measured:
[1] = test system: Mytilus galloprovincialis plantigrade larvae; conditions: cited from earlier work
[2] = test system: Mytilus galloprovincialis plantigrade larvae; conditions: cited from earlier work; remark: listed apart in the source
[3] = test system: Artemia salina nauplii; conditions: cited from earlier work
[4] = test system: Mytilus galloprovincialis plantigrade larvae; experiment: Toxicity (LC50, therapeutic ratio) toward mussel plantigrade larvae; type: in vivo
Procedure: (§1) For the bioassays, M. galloprovincialis juveniles were collected in intertidal mussel beds during low tides in Memória beach, Matosinhos, Portugal (41°13′59″ N; 8°43′28″ W). Mussel plantigrade larvae (0.5–2 mm) were sorted in a binocular magnifier (Olympus SZX2-ILLT, Tokyo, Japan) and those presenting foot exploring behavior for settlement were selected to the screening bioassays at 50 µM performed in 24-well microplates for 15 h, in the dark at 18 ± 1 °C, according to Almeida et al.. Four well replicates per condition and five competent larvae per well were included. Negative and positive controls were included, namely DMSO (0.1%) and CuSO4 (5 µM) as an efficient antifouling agent. Stock solutions in DMSO (50 mM) were used to prepare test media (50 µM) in filtered seawater (0.1% DMSO). After the exposure period, the anti-settlement bioactivity was determined by the observation of efficiently attached plantigrade larvae considering the existence/absence of produced byssal threads for each test condition.
(§2) Data from the anti-settlement screening were analyzed using a one-way analysis of variance (ANOVA), followed by a Dunnett test against the negative control (p < 0.05). […] Therapeutic ratios (LC50/EC50) were used to evaluate the effectiveness versus toxicity of bioactive compounds. […] The mixed model ANOVA was performed on log10(x + 1)-transformed values from 4 biological replicates, employing the software IBM SPSS Statistics (version 21, SPSS Inc., Chicago, IL, USA).

[5] = as above; type: in vivo; conditions: Mytilus galloprovincialis, in vivo, median lethal dose, mussel plantigrades
Procedure: as §1, §2

[6] = test system: Mytilus galloprovincialis plantigrade larvae; experiment: Mytilus galloprovincialis larvae anti-settlement bioassay; type: in vivo; conditions: for anti-settlement response versus negative control: screening at 50 μM, Dunnett test p < 0.05; for settlement of mussel larvae: at 50 µM
Procedure: as §1, §2

[7] = test system: Artemia salina nauplii; experiment: Brine shrimp (Artemia salina) lethality test, ecotoxicity; type: in vivo; conditions: 48 h; for toxicity to A. salina: lowest concentration tested, 25 μM; for mortality of Artemia salina nauplii: at 50 µM
Procedure: Ecotoxicity of the most promising xanthones to non-target species was assessed using the brine shrimp (Artemia salina) lethality test standard protocol. Newly hatched nauplii I larvae were used for the exposure to the most promising antifouling compounds at 50 and 25 µM. The bioassay was performed in 96-well microplates with eight replicates per condition and 15–20 nauplii per well, including a positive (K2Cr2O7 at 13.6 µM) and negative control (0.1% DMSO). The percentage of nauplii mortality for each condition was determined at the end of the exposure period (48 h).

[8] = test system: Roseobacter litoralis CECT 5395; experiment: Biofilm-forming marine bacteria growth bioassay; type: cell-based; conditions: for inhibition at 12.5 µM: Roseobacter litoralis, read-out: growth inhibition of R. litoralis
Procedure: The experimental procedure was performed as previously reported by Almeida et al.. […] Bacterial growth inhibition in the presence of the compounds was determined in quadruplicate at 600 nm using a microplate reader (Biotek Synergy HT, Winooski, VT, USA). Negative and positive controls used were a solution of marine broth with 0.1% DMSO, and a stabilized solution of marine broth with penicillin-streptomycin-neomycin, respectively.

[9] = test system: Balanus amphitrite larvae; conditions: cited from earlier work; for EC50, larval settlement of Balanus amphitrite / toxicity effects on the barnacle larvae: in vivo
[10] = test system: Escherichia coli; set-up: method as in PMID 23172582; conditions: in words; cited from earlier work
[11] = test system: brine shrimp (Artemia salina); set-up: method as in PMID 23172582; conditions: in words; cited from earlier work
[12] = test system: Staphylococcus aureus; set-up: method as in PMID 23172582; conditions: in words; cited from earlier work
[13] = test system: Colletotrichum lagenarium; set-up: method as in PMID 23172582; conditions: in words; cited from earlier work
[14] = Mytilus galloprovincialis, 15 h
[15] = Mytilus galloprovincialis, 15 h, read-out: EC50 (μg.mL^−1)
[16] = other: larvae immersed in test media in filtered seawater
[17] = Mytilus galloprovincialis, 15 h, concentration that inhibited 50% of larval settlement of mussel plantigrades, 15 h exposure, read-out: EC50
[18] = Mytilus galloprovincialis, 15 h, concentration that inhibited 50% of larval settlement of mussel plantigrades, 15 h exposure, read-out: EC50 (μg.mL^−1)
[19] = larval settlement of mussel plantigrades

SMILES	anti-settlement response versus negative control [6]	toxicity to the macrofouling species (mussel larvae) ([4]; in vivo)	LC50 at 15 h [5, 16]	EC50 [6, 17]	EC50 [6, 18]	settlement of mussel larvae ([6]; 15 h)	mortality of Artemia salina nauplii [7]	also measured
O=c1c2ccccc2oc2c(O)c(O)ccc12 [3,4-Dihydroxyxanthone]	–	–	–	–	–	–	–	toxicity to the macrofouling species (mussel larvae) ([1]; in words): low toxicity; activity toward the settlement of Mytilus galloprovincialis larvae ([2]; in words): exhibited in vivo activity; ecotoxicity toward A. salina, mortality [3]: < 10%
COc1cc(C)c2c(=O)c3ccccc3oc2c1OC [Compound 1, 3,4-dimethoxy-1-methyl-9H-xanthen-9-one]	highly significant anti-settlement responses	–	–	–	–	–	–	toxicity to the macrofouling species (mussel larvae) ([4]; in words): low toxicity; LC50 at 15 h [5]: > 100 µM; EC50 [6, 14]: 11.8 µM; EC50 [6, 15]: 3.19 µg/mL; toxicity to A. salina [7]: significant toxicity
COc1ccc2c(=O)c3c(C)cc(OC)c(OC)c3oc2c1 [Compound 2, 3,4,6-trimethoxy-1-methyl-9H-xanthen-9-one]	highly significant anti-settlement responses	–	–	–	–	–	–	toxicity to the macrofouling species (mussel larvae) ([4]; in words): low toxicity; LC50 at 15 h [5]: > 100 µM; EC50 [6, 14]: 27.2 µM; EC50 [6, 15]: 8.15 µg/mL; toxicity to A. salina [7]: significant toxicity
COc1ccc2c(=O)c3c(C)c(Cl)c(OC)c(OC)c3oc2c1 [Compound 3, 2-chloro-3,4,6-trimethoxy-1-methyl-9H-xanthen-9-one]	nullified the significant anti-settlement effect	–	–	–	–	–	–	–
COc1ccc2c(=O)c3c(CCl)cc(OC)c(OC)c3oc2c1 [Compound 4, 1-(chloromethyl)-3,4,6-trimethoxy-9H-xanthen-9-one]	highly significant anti-settlement responses	low toxicity	> 100 µM	16.1 µM	5.41 µg/mL	20%	< 10%	–
COc1ccc2c(=O)c3c(CBr)cc(OC)c(OC)c3oc2c1 [Compound 5, 1-(bromomethyl)-3,4,6-trimethoxy-9H-xanthen-9-one]	–	–	–	–	–	45%	–	–
COc1cc(C(Br)Br)c2c(=O)c3ccccc3oc2c1OC [Compound 6, 1-(dibromomethyl)-3,4-dimethoxy-9H-xanthen-9-one]	highly significant anti-settlement responses	–	–	–	–	–	< 10%	toxicity to the macrofouling species (mussel larvae) ([4]; in words): low toxicity; LC50 at 15 h [5]: > 100 µM; inhibition at 12.5 µM ([8]; CECT5395, 24 h): > 30%; EC50 [6, 14]: 22.8 µM; EC50 [6, 15]: 9.75 µg/mL
COc1cc(CO)c2c(=O)c3ccccc3oc2c1OC [Compound 8, 1-(hydroxymethyl)-3,4-dimethoxy-9H-xanthen-9-one]	highly significant anti-settlement responses	low toxicity	> 100 µM	21.8 µM	6.25 µg/mL	35%	< 10%	–
COc1cc(CNCCN2CCOCC2)c2c(=O)c3ccccc3oc2c1OC [Compound 16, 3,4-dimethoxy-1-(((2-morpholinoethyl)amino)methyl)-9H-xanthen-9-one]	highly significant anti-settlement responses	low toxicity	> 100 µM	17.5 µM	6.98 µg/mL	0%	< 10%	antibacterial bioactivity in concentration–response study ([8]; R. litoralis, concentrations between 2 and 32 µM (Figure S1)): not confirmed; inhibition at 12.5 µM ([8]; CECT5395, screening at 12.5 µM, 24 h): > 30%
COc1cc(CN2CCN(CCO)CC2)c2c(=O)c3ccccc3oc2c1OC [Compound 19, 1-((4-(2-hydroxyethyl)piperazin-1-yl)methyl)-3,4-dimethoxy-9H-xanthen-9-one]	highly significant anti-settlement responses	low toxicity	> 100 µM	53.9 µM	21.5 µg/mL	10%	< 10%	–
COc1cc(CN2CCc3c(N)cccc3C2)c2c(=O)c3ccccc3oc2c1OC [Compound 21, 1-((5-amino-3,4-dihydroisoquinolin-2(1H)-yl)methyl)-3,4-dimethoxy-9H-xanthen-9-one]	highly significant anti-settlement responses	low toxicity	> 100 µM	7.28 µM	3.03 µg/mL	20%	< 10%	–
COc1cc(CN2CCCCC2)c2c(=O)c3ccccc3oc2c1OC [Compound 23, 3,4-dimethoxy-1-(piperidin-1-ylmethyl)-9H-xanthen-9-one]	highly significant anti-settlement responses	low toxicity	> 100 µM	~4 µM	1.26 µg/mL	20%	< 10%	EC50 ([6]; concentration that inhibited 50% of larval settlement of mussel plantigrades, 15 h exposure, read-out: EC50): 3.57 µM
N#Cc1c(-c2ccc(Cl)cc2)[nH]c(C(F)(F)F)c1Br [ECONEA]	–	–	–	–	–	–	–	LC50 ([1]; median lethal dose, mussel plantigrades): 108 µM; EC50 [2, 19]: 4.01 µM; EC50 (μg.mL^−1) [2, 19]: 1.40 µg/mL (≈ 4.01 µM); mortality of Artemia salina ([3]; at the same concentration range (25-50 µM)): 100%
COc1cc2c(c3c(=O)c4c(OC)ccc(O)c4oc13)[C@@H]1C=CO[C@@H]1O2 [methoxysterigmatocystin]	–	–	–	–	–	–	–	EC50, larval settlement of Balanus amphitrite [9]: < 0.125 µg/mL; toxicity effects on the barnacle larvae [9]: induced paralyzing effects
COC(=O)c1cc(O)cc2oc3c(Cl)c(C)c(Cl)c(O)c3c(=O)c12 [penicilixanthone]	–	–	–	–	–	–	–	EC50, larval settlement of B. amphitrite [9]: 17.1 µg/mL
COc1cc2c(c3oc4cccc(O)c4c(=O)c13)[C@@H]1C=CO[C@@H]1O2 [sterigmatocystin]	–	–	–	–	–	–	–	EC50, larval settlement of Balanus amphitrite [9]: < 0.125 µg/mL; toxicity effects on the barnacle larvae [9]: induced paralyzing effects
COC(=O)c1cc(OC)c2c(=O)c3c(O)cc(C)cc3oc2c1 [yicathin B]	–	–	–	–	–	–	–	antimicrobial activity against Escherichia coli [10]: active; brine shrimp (Artemia salina) toxicity [11]: weak
COc1cc(C(=O)O)cc2oc3cc(C)cc(O)c3c(=O)c12 [yicathin C]	–	–	–	–	–	–	–	antimicrobial activity against Staphylococcus aureus [12]: could inhibit; antimicrobial activity against Escherichia coli [10]: could inhibit; brine shrimp (Artemia salina) toxicity [11]: weak; antimicrobial activity against Colletotrichum lagenarium [13]: could inhibit
